The values below come from publication PMC7493682, “Caffeine Targets SIRT3 to Enhance SOD2 Activity in Mitochondria” (Frontiers in Cell and Developmental Biology, 2020).

The target in this assay is T1, SIRT3 (Homo sapiens, UniProt Q9NTG7).
T1 sequence (Q9NTG7 102-399): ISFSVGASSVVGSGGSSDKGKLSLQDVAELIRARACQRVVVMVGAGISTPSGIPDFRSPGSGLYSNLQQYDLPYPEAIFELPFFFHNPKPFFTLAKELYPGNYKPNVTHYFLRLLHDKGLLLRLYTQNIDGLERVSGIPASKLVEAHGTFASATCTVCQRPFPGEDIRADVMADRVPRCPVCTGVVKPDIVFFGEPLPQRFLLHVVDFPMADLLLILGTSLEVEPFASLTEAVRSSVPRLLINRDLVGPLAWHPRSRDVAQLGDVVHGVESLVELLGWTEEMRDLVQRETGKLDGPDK
In words: SPR (Biacore S200, immobilized SIRT3); also BLI (KD […]) and activation of the pure enzyme. Format: binding. (In general: In SPR one partner is held on a chip, and binding of the other changes the refractive index at the surface.)

In turn, `Cn1c(=O)c2c(ncn2C)n(C)c1=O` [Caffeine, 1,3,7-trimethylxanthine] returned a Kd of 686 nM. In other words, the sub-micromolar range.

A word on the Kd: it is the free concentration of one partner at which half of the binding sites on the other are occupied at equilibrium, for simple one-to-one binding. Read a low Kd as higher affinity.
